Experimental data from article PMC2878737 (Channels (Austin, Tex.), 2009).

Tests used:
NaV1.2 = NaV1.2 (Rattus norvegicus, UniProt P04775)
NaV1.2[F385C] = NaV1.2[F385C] (Rattus norvegicus, UniProt P04775, F385C); conditions: cited from earlier work
NaV1.2[F385C], sequence (P04775 whole entry F385C, looked up): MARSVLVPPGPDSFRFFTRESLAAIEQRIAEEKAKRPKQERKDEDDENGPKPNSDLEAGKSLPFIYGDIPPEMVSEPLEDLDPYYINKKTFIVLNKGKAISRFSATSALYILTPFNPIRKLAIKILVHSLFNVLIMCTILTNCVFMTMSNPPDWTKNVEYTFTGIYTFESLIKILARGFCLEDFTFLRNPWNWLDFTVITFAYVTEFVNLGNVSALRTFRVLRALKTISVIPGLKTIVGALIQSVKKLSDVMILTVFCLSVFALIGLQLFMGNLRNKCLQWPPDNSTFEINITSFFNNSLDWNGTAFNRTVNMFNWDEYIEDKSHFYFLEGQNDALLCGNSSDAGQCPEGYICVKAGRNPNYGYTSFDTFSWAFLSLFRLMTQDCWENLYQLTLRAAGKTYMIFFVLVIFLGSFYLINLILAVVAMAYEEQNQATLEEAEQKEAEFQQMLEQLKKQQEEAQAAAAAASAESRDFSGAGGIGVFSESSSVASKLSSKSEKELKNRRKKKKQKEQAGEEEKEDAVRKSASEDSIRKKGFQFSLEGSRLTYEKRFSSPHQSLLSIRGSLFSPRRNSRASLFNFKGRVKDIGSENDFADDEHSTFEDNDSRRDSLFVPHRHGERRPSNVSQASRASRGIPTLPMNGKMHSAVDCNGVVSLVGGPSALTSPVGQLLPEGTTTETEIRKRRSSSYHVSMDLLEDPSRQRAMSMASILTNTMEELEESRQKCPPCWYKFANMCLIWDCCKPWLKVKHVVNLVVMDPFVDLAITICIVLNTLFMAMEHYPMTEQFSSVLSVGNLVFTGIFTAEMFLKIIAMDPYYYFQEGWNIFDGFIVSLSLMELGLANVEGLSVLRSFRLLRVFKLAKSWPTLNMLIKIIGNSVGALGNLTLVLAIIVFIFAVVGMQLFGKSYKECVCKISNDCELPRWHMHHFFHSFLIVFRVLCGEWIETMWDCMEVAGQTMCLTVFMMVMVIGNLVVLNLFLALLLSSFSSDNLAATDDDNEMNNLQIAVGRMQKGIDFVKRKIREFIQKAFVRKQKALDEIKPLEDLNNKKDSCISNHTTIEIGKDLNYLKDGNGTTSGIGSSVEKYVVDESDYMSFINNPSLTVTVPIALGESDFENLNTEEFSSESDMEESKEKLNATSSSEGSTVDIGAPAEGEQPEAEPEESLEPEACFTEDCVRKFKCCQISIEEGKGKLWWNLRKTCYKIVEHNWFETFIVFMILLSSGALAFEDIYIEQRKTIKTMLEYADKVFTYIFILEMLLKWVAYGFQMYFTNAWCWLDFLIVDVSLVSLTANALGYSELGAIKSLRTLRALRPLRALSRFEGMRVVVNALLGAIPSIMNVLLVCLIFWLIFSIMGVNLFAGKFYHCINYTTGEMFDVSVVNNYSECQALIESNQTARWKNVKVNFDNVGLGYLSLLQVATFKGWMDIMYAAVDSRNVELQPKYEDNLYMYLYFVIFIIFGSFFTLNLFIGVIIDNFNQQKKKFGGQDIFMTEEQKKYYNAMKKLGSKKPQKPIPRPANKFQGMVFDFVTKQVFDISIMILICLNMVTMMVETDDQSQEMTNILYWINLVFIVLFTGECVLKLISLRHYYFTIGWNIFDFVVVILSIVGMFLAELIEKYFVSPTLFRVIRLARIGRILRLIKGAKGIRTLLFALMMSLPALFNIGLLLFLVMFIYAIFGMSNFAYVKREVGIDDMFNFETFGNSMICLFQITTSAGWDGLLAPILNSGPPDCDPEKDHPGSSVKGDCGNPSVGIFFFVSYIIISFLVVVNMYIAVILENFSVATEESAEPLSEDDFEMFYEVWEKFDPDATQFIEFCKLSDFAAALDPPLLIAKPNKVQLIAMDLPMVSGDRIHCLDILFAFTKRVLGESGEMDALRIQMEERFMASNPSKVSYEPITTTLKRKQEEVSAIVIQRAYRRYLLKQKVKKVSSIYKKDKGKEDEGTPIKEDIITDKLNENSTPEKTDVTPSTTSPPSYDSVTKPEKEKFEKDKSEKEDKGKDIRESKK

NaV1.2, sequence (P04775 whole entry, looked up): as the sequence (P04775 whole entry F385C, looked up) above, with C385F counted along it

NC1=N[C@H](O)[C@H]2[C@H]3O[C@]4(O)O[C@@H]([C@@H](O)[C@@]2(N1)[C@@H]4O)[C@]3(O)CO [TTX, Tetrodotoxin]
Plateau of block at saturating [toxin] (Langmuir fit) (NaV1.2): 100%
sensitivity of NaV1.2[F385C] (NaV1.2[F385C]): insensitive
